Assay results: publication PMC7761830, “Structure-Based Virtual Screening of Ultra-Large Library Yields Potent Antagonists for a Lipid GPCR” (Biomolecules, 2020)

Assays:
wild-type CysLT2R = target: T1, wild-type CysLT2R (Homo sapiens, UniProt Q9NS75); assay: IP1 production assay, antagonist mode, co-stimulation with EC80 LTD4; type: cell-based; settings: for inhibition at 30 µM: HEK293, compound 30 µM, LTD4 at EC80, HEK293, wild-type CysLT2R, read-out: inhibition of LTD4-induced IP1 production, single-concentration screen; for Emax: HEK293, read-out: CysLT2R (LTD4) % Max Inhibition ± SEM
T1 construct: expressed in transfected cells; host or cells: HEK293 (ATCC CRL-1573), transient transfection with Lipofectamine 3000
T1 sequence (Q9NS75 1-346): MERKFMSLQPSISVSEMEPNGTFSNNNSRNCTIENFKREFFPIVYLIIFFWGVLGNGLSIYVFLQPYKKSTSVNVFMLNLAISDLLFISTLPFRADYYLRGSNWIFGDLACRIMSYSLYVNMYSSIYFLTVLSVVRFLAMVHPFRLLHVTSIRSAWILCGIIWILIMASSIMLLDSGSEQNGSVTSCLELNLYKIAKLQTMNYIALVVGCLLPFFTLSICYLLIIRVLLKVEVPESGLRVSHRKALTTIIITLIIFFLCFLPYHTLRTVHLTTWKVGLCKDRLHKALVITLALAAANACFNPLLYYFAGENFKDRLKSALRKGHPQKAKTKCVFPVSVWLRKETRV
Experimental: (§1) For this assay, we used the Cisbio IP-One kit as previously described. […] At 48 h post-transfection, the media was removed and the cells were washed with fresh Hank’s Balanced Salt Solution (HBSS). […] After compound stimulation, the cells were incubated for 1 h at 37 °C and stimulated with IP1-D2 and Ab-Crypt reagents in Lysis Buffer. The cells were then incubated at room temperature for an additional hour. […] Normalized data were plotted using either the three-parameter or four-parameter EC50/IC50 fits of GraphPad Prism 8 (San Diego). […] Data represent the means ± SEM of at least three independent experiments performed in quadruplicate.

wild-type CysLT1R = target: T2, wild-type CysLT1R (Homo sapiens, UniProt Q9Y271); assay: as above; type: cell-based; settings: for inhibition at 30 µM: HEK293, compound 30 µM, LTD4 at EC80, HEK293, wild-type CysLT1R, read-out: inhibition of LTD4-induced IP1 production, single-concentration screen; for Emax: HEK293, read-out: CysLT1R (LTD4) % Max Inhibition ± SEM
T2 construct: expressed in transfected cells; host or cells: HEK293 (ATCC CRL-1573), transient transfection with Lipofectamine 3000
T2 sequence (Q9Y271 1-337): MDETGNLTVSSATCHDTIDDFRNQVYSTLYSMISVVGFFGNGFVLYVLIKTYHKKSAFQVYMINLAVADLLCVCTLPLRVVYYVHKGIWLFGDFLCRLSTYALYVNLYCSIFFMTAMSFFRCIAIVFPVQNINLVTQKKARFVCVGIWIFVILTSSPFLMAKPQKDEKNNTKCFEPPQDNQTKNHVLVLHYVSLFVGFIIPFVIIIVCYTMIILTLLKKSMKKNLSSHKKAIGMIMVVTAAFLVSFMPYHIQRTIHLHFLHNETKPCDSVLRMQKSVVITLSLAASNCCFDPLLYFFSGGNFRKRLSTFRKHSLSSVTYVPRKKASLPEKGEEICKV
Experimental: as §1

CysLT1R = settings: CysLT1R; ChEMBL value; ref 29 (ChEMBL); cited from earlier work

Structure (SMILES) | remaining activity at 30 µM (wild-type CysLT2R) | remaining activity at 30 µM (wild-type CysLT1R) | other results
O=C(O)CNC(=O)c1ccc(NC(=O)c2cnc3ccccc3c2)cc1 [BRI-12440] | 75% | 95.2% | –
O=C(O)CNC(=O)c1ccc(NC(=O)CCc2cccc(F)c2F)cc1 [BRI-12441] | 70.9% | 88.3% | –
O=C(O)CNC(=O)c1ccc(NC(=O)CCn2cccc2)cc1 [BRI-12442] | 51.7% | 74.5% | –
COc1ccccc1OCc1ccc(C(=O)N[C@@H](CC(=O)O)c2ccc(Cl)cc2)o1 [BRI-12443] | 82.3% | 84.5% | –
Cc1cnnn1-c1ccc(NC(=O)c2cccc(NC(=O)CCCc3cccs3)c2)cc1 [BRI-12444] | 68.2% | 96.1% | –
CC(C)(C)n1nnc(COC(=O)C2OCCc3ccccc32)n1 (centres unmarked) [BRI-12445] | 67.7% | 86.6% | –
O=C(Nc1ccc(C(=O)NC2CCCCC2)c(O)c1)c1ccc(F)c(S(=O)(=O)NC2CC2)c1 [BRI-12446] | 67.7% | 72.4% | –
NC(=O)Nc1ccc(C(=O)NCc2c(C(=O)O)oc3ccccc23)cc1 [BRI-12447] | 52.9% | 85.5% | –
NC(=O)CN1CCN(C(=O)c2ccccc2NC(=O)c2ccc(Cl)cc2)CC1=O [BRI-12454] | 48.4% | 77.4% | inhibition at 30 µM (wild-type CysLT2R): ≥ 50%; Emax (wild-type CysLT2R): 6 ± 10%
NC(=O)c1ncn(C2CCCN(c3nc(-c4ccccc4)cs3)C2)n1 (centres unmarked) [BRI-12455] | 71.1% | 84.2% | –
O=C(O)c1cccc(NC(=O)c2ccc(N3CCNC3=O)cc2)c1 [BRI-12457] | 67.4% | 83.8% | –
CCc1ncnc(N[C@H]2C[C@@H](CNC(=O)c3ccn4cc(C)nc4c3)C2)c1F [BRI-12458] | 40.9% | 51.3% | inhibition at 30 µM (wild-type CysLT2R): ≥ 50%; Emax (wild-type CysLT2R): 13 ± 10%; inhibition at 30 µM (wild-type CysLT1R): ≥ 50%; Emax (wild-type CysLT1R): 38 ± 16%
O=C(c1cc(C(F)(F)F)n[nH]1)N1CCC2(C1)CN(C(=O)[C@@H]1C[C@H]1c1cccnc1)C2 [BRI-12459] | 69.1% | 77.6% | –
O=C(O)CC(NS(=O)(=O)Cc1cccc2cccnc12)c1cnn(-c2ccccc2)c1 (centres unmarked) [BRI-12460] | 73.5% | 83.9% | –
COc1ccccc1C(=O)NCC1CN(C(=O)c2ccc3[nH]c(=O)n(C)c3c2)C1 [BRI-12461] | 58.4% | 87.6% | –
Cc1nonc1CC(=O)NC1(CNC(=O)c2cc3occc3s2)CCC1 [BRI-12463] | 57.8% | 81.2% | –

Structure (SMILES) | remaining activity at 30 µM (wild-type CysLT2R) | remaining activity at 30 µM (wild-type CysLT1R) | other results
Cc1ccc2ncc(C(=O)NC3CN(C(=O)c4cc(C(N)=O)cs4)C3)n2c1 [BRI-12466] | 39% | 67.7% | inhibition at 30 µM (wild-type CysLT2R): ≥ 50%; Emax (wild-type CysLT2R): 12 ± 6%
O=C(NCC1(O)CN(C(=O)c2ccc(=O)[nH]c2)C1)c1ccc2c(c1)CCC2 [BRI-12467] | 53.8% | 69.4% | –
COc1cccc(CC(=O)N[C@H]2[C@@H]3CC[C@@H](C3)[C@H]2C(=O)O)c1Cl [BRI-12468] | 64.6% | 89.1% | –
CCOc1ccc(NC(=O)c2cccn3nnnc23)c(C(N)=O)c1 [BRI-12469] | 52.8% | 80.7% | –
O=C(O)CNC(=O)c1ccc(NC(=O)COCc2ccccc2)cc1 [BRI-12473] | 66.6% | 86.5% | –
Cc1sc(NC(=O)C(C)(CC(=O)O)C2CCCCC2)c(C(N)=O)c1-c1ccccc1 (centres unmarked) [BRI-12474] | 106% | 118% | –
CC1(C(=O)Nc2ccc(C(=O)NCCC(=O)O)cc2)CCOCC1 [BRI-12476] | 66.4% | 90.1% | –
COC[C@@H](C)n1c(-c2ccc3[nH]c(=O)oc3c2)csc1=Nc1ccc(C(N)=O)cc1 [BRI-12477] | 60.6% | 74.9% | –
O=C(NCCc1c[nH]c2cc(Cl)ccc12)c1ccc(NC2=NS(=O)(=O)c3ccccc32)cc1 [BRI-12478] | 65.9% | 82.9% | –
COc1cc(C(=O)NS(=O)(=O)c2ccccc2C)ccc1Cc1cn(C)c2ccc(NC(=O)OC3CCCC3)cc12 [CHEMBL603, Cc1ccccc1S(NC(c1ccc(Cc2cn(C)c3ccc(cc23)NC(=O)OC2CCCC2)c(c1)OC)=O)(=O)=O] | – | – | pAct (CysLT1R): 11.4
O=C(Nc1cccc2c(=O)cc(-c3nn[nH]n3)oc12)c1ccc(OCCCCc2ccccc2)cc1 [CHEMBL21333, C(CCOc1ccc(cc1)C(Nc1cccc2C(C=C(c3nn[nH]n3)Oc12)=O)=O)Cc1ccccc1] | – | – | pAct (CysLT1R): 9.1
CN(C)C(=O)CCS[C@H](SCCC(=O)O)c1cccc(C=Cc2ccc3ccc(Cl)cc3n2)c1.[Na] [CHEMBL89340, CN(C)C(CCS[C@@H](c1cccc(C=Cc2ccc3ccc(cc3n2)[Cl])c1)SCCC(O)=O)=O.[Na]] | – | – | pAct (CysLT1R): 8.5
CCCC(CCc1nnn[nH]1)Cc1ccc(OCc2ccc3ccccc3n2)cc1 (centres unmarked) [CHEMBL97356, CCCC(CCc1nnn[nH]1)Cc1ccc(cc1)OCc1ccc2ccccc2n1] | – | – | pAct (CysLT1R): 8.0
O=C(Nc1ccc2ccc(OCc3ccc4ccccc4n3)cc2c1)OCc1ccc(C(=O)O)cc1 [CHEMBL132167, C(c1ccc(cc1)C(O)=O)OC(Nc1ccc2ccc(cc2c1)OCc1ccc2ccccc2n1)=O] | – | – | pAct (CysLT1R): 8.0
CC(C)(O)c1ccccc1CC[C@@H](SCC1(CC(=O)O)CC1)c1cccc(C=Cc2ccc3c(n2)CCS3)c1 [CHEMBL140058, CC(C)(c1ccccc1CC[C@H](c1cccc(C=Cc2ccc3c(CCS3)n2)c1)SCC1(CC1)CC(O)=O)O] | – | – | pAct (CysLT1R): 8.5

More lines, main results first:

remaining activity at 30 µM (wild-type CysLT2R) | remaining activity at 30 µM (wild-type CysLT1R) | Structure (SMILES) | other results
88.5% | 95.9% | Cc1nc2c(C(N)=O)cnn2c(C)c1CCC(=O)N(C)c1ccc2cc[nH]c2c1 [BRI-12448] | –
67.8% | 67.5% | O=C(O)CC1CN(S(=O)(=O)C=Cc2ccc(Cl)cc2)c2ccccc21 (centres unmarked) [BRI-12449] | –
41.1% | 57.6% | CN(CC(=O)O)C(=O)c1ccc(-c2ccc(NC(=O)C(C)(C)C)nc2)o1 [BRI-12450] | inhibition at 30 µM (wild-type CysLT2R): ≥ 50%; Emax (wild-type CysLT2R): 24 ± 8%; inhibition at 30 µM (wild-type CysLT1R): ≥ 50%; Emax (wild-type CysLT1R): 44 ± 25%
61.2% | 65.3% | O=C(O)CNS(=O)(=O)c1ccc(-c2ccc3c(c2)CCC3)s1 [BRI-12451] | –
77.4% | 76.5% | O=C(Cc1ccc(S(=O)(=O)CCO)cc1)Nc1ccc(-c2nc3cccc(Cl)c3s2)cc1 [BRI-12452] | –
49.5% | 88.3% | NC(=O)CNC(=O)c1ccc(CNC(=O)c2cc3ccc(F)cc3[nH]c2=O)cc1 [BRI-12453] | inhibition at 30 µM (wild-type CysLT2R): ≥ 50%; Emax (wild-type CysLT2R): 3 ± 7%
65.2% | 96.3% | O=C(O)CN(CC(=O)O)S(=O)(=O)Cc1cc(Cl)cc(Cl)c1 [BRI-12456] | –
78.1% | 77.1% | Cc1ccc2c(CC(=O)N3CCN(C(=O)c4ccc(C(N)=O)o4)CC3)c[nH]c2c1 [BRI-12462] | –
60.8% | 103% | CC(CNS(=O)(=O)c1csc(-c2ccc(F)cc2)n1)C(=O)O (centres unmarked) [BRI-12464] | –
59.9% | 84.7% | O=C(O)CCNC(=O)c1nccnc1C(=O)Nc1ccc(Cl)cc1 [BRI-12465] | –
58.6% | 81% | CCc1ccc(CN(C)S(=O)(=O)c2[nH]ncc2C(=O)O)cc1 [BRI-12470] | –
50.7% | 88.2% | O=C(O)Cn1ccc(NC(=O)CNC(=O)Cc2cccc(F)c2)n1 [BRI-12471] | –
66.4% | 95.8% | CCC(=O)Nc1ccc(S(=O)(=O)NC(C)(C)CC(=O)O)cc1 [BRI-12472] | –
74.6% | 68.3% | O=C(O)CCc1cccc(NC(=O)c2ccc(-c3cccs3)[nH]c2=O)c1 [BRI-12475] | –
